Measured values: US6706741B2, “Acetylcholinesterase inhibitors containing 1-benzyl-pyridinium salts” (priority 2000, dated 2004)

Target: T1, acetylcholinesterase (Rattus norvegicus, UniProt P37136)
T1 construct: Using a rat brain homogenate as a source of acetylcholinesterase; from tissue; host or cells: rat brain homogenate
Assay: biochemical
Details: rat brain homogenate as source of acetylcholinesterase; acetylthiocholine substrate, DTNB, absorbance at 412 nm
Protocol: Using a rat brain homogenate as a source of acetylcholinesterase, the esterase activity was determined in accordance with the method of Ellman et al^1).
^1); Ellman. G. L., Courtney, K. D., Andres, V. and Featherstone, R. M., (1961), Biochem. Pharmacol., 7, 88-95.

T1 sequence (P37136 32-614): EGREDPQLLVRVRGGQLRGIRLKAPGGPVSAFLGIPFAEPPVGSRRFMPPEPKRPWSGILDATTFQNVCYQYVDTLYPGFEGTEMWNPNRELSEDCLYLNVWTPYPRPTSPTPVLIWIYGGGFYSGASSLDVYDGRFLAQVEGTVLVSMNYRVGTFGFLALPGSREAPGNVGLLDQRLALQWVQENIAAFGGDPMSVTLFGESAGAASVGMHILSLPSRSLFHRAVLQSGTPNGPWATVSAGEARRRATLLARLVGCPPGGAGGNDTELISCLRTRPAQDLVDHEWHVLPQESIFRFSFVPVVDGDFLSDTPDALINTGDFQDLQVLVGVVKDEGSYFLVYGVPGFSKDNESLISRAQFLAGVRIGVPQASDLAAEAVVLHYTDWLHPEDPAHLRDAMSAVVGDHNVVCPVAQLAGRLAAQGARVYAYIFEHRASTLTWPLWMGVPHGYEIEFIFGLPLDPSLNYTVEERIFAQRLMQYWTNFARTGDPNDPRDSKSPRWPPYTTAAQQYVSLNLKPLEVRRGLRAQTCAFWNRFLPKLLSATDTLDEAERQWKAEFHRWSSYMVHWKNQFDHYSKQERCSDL

## COc1cc2c(cc1OC)C(=O)C(Cc1cc[n+](Cc3ccccc3)cc1)C2 (stereo not shown) [Example 1, 1-Benzyl-4-[(5.6-dimethoxy-1-indanone)-2-yl]methylpyridinium bromide]
  IC50: 3.8 nM
